US20080138437A1, “Antitumor Agent” (priority 2004, published 2008)
Structures can show the parent of a compound that is named as a salt. Where two headings read alike, the source gives them in different places.

Assays:
[1] = test system: 15 types of human cancer cells; test: Cell growth inhibition test, MTT, average GI 50; type: cell-based; details: average of 15 human cancer cell types, 48 hours exposure
Experimental: Appropriate amounts of each of the human cancer cells suspended in 5% fetal bovine serum-supplemented medium were plated into a 96-well plate, and allowed to adhere to the wells in a 37° C. CO2 incubator overnight.
These cancer cells were exposed to each anticancer agent for 48 hours. Cell growth was assayed by MTT. Absorbance of the control well (C) and the test well (T) was measured at 550 nm.
The absorbance of the test well immediately after adding the drug (TO) was also measured. Using these measured values, GI 50 of each drug was calculated, and the drug concentration at that time was obtained. For comparison, a similar test was performed for each of the anticancer agents (Comparative Tests 4-1 to 4-7).

in vivo [2] = details: BDF1, mouse, sc
C57BL/6 male mouse = details: one-time, 14 days observation
[3] = test system: OVCAR-3 ovarian cancer cells; test: Antitumor test, transplanted tumor in nude mice; type: in vivo, human; details: control, drug without hydroxyapatite adsorption
Source text: (§1) (Experimental Test 5-1 to 5-5).
(§2) Female nude mice (7 weeks old, 16 to 22 g) with a BALB/c genetic background were used for the tests. Human cancer cells used for the tests were GCIY stomach cancer cells, HCT-15 colon cancer cells, A549 lung cancer cells, and OVCAR-3 ovarian cancer cells. Human cancer cells were subcutaneously transplanted into nude mice, tumor lumps were formed, and these carcinomas were used for the tests.
(§3) Aseptically collected tumors were sliced into tumors of 3×3×3 mm, and then subcutaneously transplanted into a new nude mouse. When the tumors reached a volume of 100 to 300 mm^3, the animals were arbitrarily divided into groups of six (Day 0). […] Intravascular administration was the administration route for all.
(§4) After administration, between Days 24 to 31, the length (L) and width (W) of the tumor lump of the animal were measured twice a week, and the tumor volume (TV) was calculated according to the following formula: TV=(L×W^2)/2. Antitumor effect was determined at Day 14. The relative tumor volume (RTV) was obtained by the following formula: RTV=TV14/TV0, using values of the tumor volume at Day 0 and Day 14 (referred to as TV0 and TV14). Antitumor effect was evaluated as the tumor regression rate at Day 14 (T/C%). Herein, T/C %=100×(average RTV of the treated group)/(RTV of the control group).
(§5) As a control, each drug was tested without hydroxyapatite adsorption (Comparative Tests 5-10 to 5-14).

[4] = test system: GCIY stomach cancer cells; test: Antitumor test, transplanted tumor in nude mice; type: in vivo, human; details: control, drug without hydroxyapatite adsorption
Source text: as §1, §2, §3, §4, §5

A549 lung cancer cells = test: Antitumor test, transplanted tumor in nude mice; type: in vivo, human; details: control, drug without hydroxyapatite adsorption
Source text: as §1, §2, §3, §4, §5

[5] = test system: HCT-15 colon cancer cells; test: Antitumor test, transplanted tumor in nude mice; type: in vivo, human; details: control, drug without hydroxyapatite adsorption
Source text: as §1, §2, §3, §4, §5

in vivo [6] = details: male, C57BL/6, mouse
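Throughout, for deaths versus administered animals: mice given a single dose and followed for 14 days, with deaths tallied, LD50 derived from the doses given and the resulting death counts.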

Row | Compound | GI50 [1] | LD50 (in vivo [2]) | deaths versus administered animals (C57BL/6 male mouse; 1.0 mg/kg intravascular) | deaths versus administered animals (C57BL/6 male mouse; 1.5 mg/kg intravascular) | deaths versus administered animals (C57BL/6 male mouse; 2.0 mg/kg intravascular) | deaths versus administered animals (C57BL/6 male mouse; 3.0 mg/kg intravascular) | deaths versus administered animals (C57BL/6 male mouse; 3.5 mg/kg intravascular) | Regression rate of transplanted cancer (T/C %) at Day 14 [3] | Regression rate of transplanted cancer (T/C %) at Day 14 [4] | Regression rate of transplanted cancer (T/C %) at Day 14 (A549 lung cancer cells) | Regression rate of transplanted cancer (T/C %) at Day 14 [5] | LD50 (in vivo [6]) | deaths versus administered animals (C57BL/6 male mouse; 50 mg/kg intravascular) | deaths versus administered animals (C57BL/6 male mouse; 100 mg/kg intravascular) | deaths versus administered animals (C57BL/6 male mouse; 150 mg/kg intravascular) | deaths versus administered animals (C57BL/6 male mouse; 200 mg/kg intravascular) | deaths versus administered animals (C57BL/6 male mouse; 250 mg/kg intravascular) | deaths versus administered animals (C57BL/6 male mouse; 300 mg/kg intravascular) | deaths versus administered animals (C57BL/6 male mouse; 350 mg/kg intravascular) | deaths versus administered animals (C57BL/6 male mouse; 400 mg/kg intravascular)
1 | COc1cccc2c1C(=O)c1c(O)c3c(c(O)c1C2=O)C[C@@](O)(C(=O)CO)C[C@@H]3O[C@H]1C[C@H](N)[C@H](O)[C@H](C)O1 [Doxorubicin] | 72 nM | 10 mg/kg |  |  |  |  |  |  |  |  |  |  |  |  |  |  |  |  |  | 
2 | CC[C@]1(O)C[C@H]2CN(CCc3c([nH]c4ccccc34)[C@@](C(=O)OC)(c3cc4c(cc3OC)N(C=O)[C@H]3[C@@](O)(C(=O)OC)[C@H](OC(C)=O)[C@]5(CC)C=CCN6CC[C@]43[C@@H]65)C2)C1 [Vincristine sulfate] | 3.6 nM |  | 0/5 | 2/5 | 3/8 | 7/8 | 8/8 | 79% | 81% | 76% | 101% | 1.98 mg/kg |  |  |  |  |  |  |  | 
3 | O=c1[nH]cc(F)c(=O)[nH]1 [Fluorouracil] | 36800 nM |  |  |  |  |  |  | 74% | 69% | 117% | 59% | 244 mg/kg | 0/5 | 1/5 | 1/5 | 2/5 | 2/6 | 3/5 | 5/6 | 6/6
4 | Cc1ncc(CNC(=O)N(CCCl)N=O)c(N)n1 [Nimustine hydrochloride] |  | 50 mg/kg |  |  |  |  |  |  |  |  |  |  |  |  |  |  |  |  |  | 
